The series in a line: Human HepG2 cell viability assay in 384 well format. On the set-up: dose 125 nL, time 70.5 hour; cytotoxicity at 70.5 h: concentration not given beside the values. As to conditions: HepG2 cells, read-out: Inhibition. The format is toxicity, cell-based.

On to `COCCCNC(=O)NCc1nc(C)c(C)o1`, for which the cytotoxicity at 70.5 h was -7.01%.
On to `CN(Cc1ccccc1)c1ccc(C(F)(F)F)cn1`, for which the cytotoxicity at 70.5 h is -3.92%.
The result for `CSc1ccccc1NC(=O)CCN1CCC(C(=O)N(C)C)CC1` reads 2.74%.
The result for `O=C1COc2cc(S(=O)(=O)NCCC3=CCCCC3)c(Br)cc2N1` reads -8%; that for `CN(Cc1ccc(C(N)=O)cc1)c1ccc(C(F)(F)F)cn1`, -2.07%.
Regarding `Cn1cc(C(=O)N2CCCC2c2ccc3c(c2)OCCO3)ccc1=O` (configuration not stated), the cytotoxicity at 70.5 h was -4.05%.
The result for `CC1CCc2sc(C(=O)Nc3cnn(C)c3)cc2C1` (configuration not stated) reads -2.28%; that for `Cn1ccnc1CCNS(=O)(=O)c1cccc(Br)c1`, -2.62%; that for `CC(C)(C(=O)N1CCC(C(N)=O)C1)c1ccccc1F` (configuration not stated), -2.99%.
Consider `CN(C)CCN(Cc1ccccc1)C(=O)CN1CCCNC1=O`, for which the cytotoxicity at 70.5 h was -0.477%.
With `CCN(CC)C(=O)CNC(=O)c1c[nH]c2ccc(OC)cc12`, the cytotoxicity at 70.5 h turned out to be 3.81%.
`Cc1cc(C)n(C2CN(Cc3ccc(C(=O)N4CCCC4)cc3)C2)n1`: the cytotoxicity at 70.5 h is -1.2%.
The result for `CNC(=O)c1cccc(NCCOc2ccc(CC#N)cc2)c1C` reads -1.82%.
The result for `CC(C)(C(=O)N1CCC(CS(N)(=O)=O)CC1)c1ccccc1F` reads 1.82%.
The result for `Cn1nc2c(cc1=O)CN(c1nc3ccccc3s1)CC2` reads 4.78%.
`COc1c(NS(=O)(=O)c2cc(C)ccc2C)c(C)nn1C`: the cytotoxicity at 70.5 h is -63.5%.
The result for `O=C(c1cc(-n2cccn2)ccn1)N1CCOc2ncccc21` reads -1.03%; that for `O=C(c1cc(-n2cccn2)ccn1)N1CCOc2ccncc21`, -0.581%; that for `O=C(c1cc(-n2cccn2)ccn1)N1CCOc2ccc(F)cc21`, 0.748%.
The result for `Cn1cc(CNC(=O)c2cc3c(s2)CCCCC3)cn1` reads -3.43%; that for `NC(=O)C1CN(C(=O)C2(c3ccc(F)cc3F)CCCC2)CCO1` (configuration not stated), -1.48%; that for `CC(=O)N(C)Cc1ccccc1NCc1c(C)cccc1C`, -3.43%.
The figure for `c1ccc2nc(N3CCCC3)c(NCc3nnc4n3CCC4)nc2c1` is -9.07%; for `CNC(=O)c1cccnc1NCCOc1ccc(CC#N)cc1` it is -0.53%.
With `Cn1cc(CNC2CCc3ncnn3C2)c(-c2cccnc2)n1` (configuration not stated), the cytotoxicity at 70.5 h was -5.95%.
The result for `CCc1ccc(CNC2(c3ccc(F)cc3)CCOCC2)o1` reads -5.73%; that for `CCCc1n[nH]c(C2CN(CC(=O)N(C)Cc3ccco3)CCO2)n1` (configuration not stated), -6.63%; that for `CC(C)c1n[nH]c(C2CN(CC(=O)N(C)Cc3ccco3)CCO2)n1` (configuration not stated), -3.93%.
The result for `Cn1cc(CNC2CCc3ncnn3C2)c(-c2ccncc2)n1` (configuration not stated) reads -1.76%; that for `Cc1noc(C)c1CN(C)Cc1csc(-c2ccc(C(C)C)cc2)n1`, 19.9%.
The figure for `N#Cc1ncn(CCS(=O)(=O)c2ccc(Cl)cc2)n1` is 2.53%; for `Cc1cc(NC(=O)NCc2ccc(C)s2)no1` it is -8.73%; for `CC(C)Oc1ccc(C(=O)NCc2ccnc(N3CCCC3)c2)cn1` it is -10.1%.
For the compound `CCn1cnnc1CNC(=O)N(C)Cc1ccc(Cl)cc1Cl`, the cytotoxicity at 70.5 h was 3.74%.
The result for `O=C(NCCc1cccc(Cl)c1)C1CCOCC1` reads 0.784%.
For `COC(=O)N1CCCC(C(=O)Nc2ccccc2CN2CCCC2)C1` (configuration not stated), the cytotoxicity at 70.5 h is -0.192%.
With `CCN1CCN(C2CCN(C(C(N)=O)c3ccccc3)CC2)C1=O` (configuration not stated), the cytotoxicity at 70.5 h was 1.23%.
Consider `CN(C)C1CCN(C(=O)C2SCCc3ccccc32)CC1` (configuration not stated), for which the cytotoxicity at 70.5 h is -6.27%.
For the compound `CS(=O)(=O)CCCNC1CCCN(Cc2noc(C3CC3)n2)C1` (configuration not stated), the cytotoxicity at 70.5 h is -7.07%.
In the case of `CC(C)NC(=O)CS(=O)(=O)Cc1coc(-c2ccc(F)cc2)n1`, the cytotoxicity at 70.5 h is -17.8%.
The figure for `CS(=O)(=O)NCCC1CCCCN1C(=O)NCc1ccccn1` (configuration not stated) is -18.6%; for `CCN1CCN(C(=O)NCc2ccccc2Cn2cncn2)CC1` it is 19.4%.
The figure for `CS(=O)(=O)CCCNC(=O)C1(c2cccc(Cl)c2)CC1` is -12.8%; for `CC(=O)N1CCN(C(=O)CN(C)c2ccc(Cl)cn2)CC1` it is -10.3%.
Turning to `Cc1ncc(CN2CCC(c3nc4cc(Cl)ccc4o3)CC2)s1`, the cytotoxicity at 70.5 h was 22.3%.
The result for `CN1CCCN(C(=O)NCc2ccccc2Cn2cncn2)CC1` reads -2.94%; that for `CC(=O)N1CCN(C(=O)NCc2ccccc2Cn2cncn2)CC1`, -14.9%; that for `COc1cc(C(=O)NS(=O)(=O)c2cncc(Br)c2)ccc1C`, -19%.
The figure for `CC(C)C(=O)N1CCCC1C(=O)Nc1cc(C(F)(F)F)ccc1F` (configuration not stated) is -17.3%; for `CCS(=O)(=O)CCNC(=O)C1(c2cccc(Cl)c2)CC1` it is 15.5%.
Take `COC(=O)[C@H](C)NC(=O)COc1nn(C)c2nc(C)cc(C)c12`: the cytotoxicity at 70.5 h was -16.3%.
As for `Cc1cc(C)c2c(OCC(=O)N(C)CC(=O)NC(C)C)nn(C)c2n1`, the cytotoxicity at 70.5 h is -19.9%.
The result for `Cc1cc(NC(=O)CN2CCc3c(nc(C(C)C)n3C)C2)n(C)n1` reads -16.7%.
In the case of `Cc1nnc(NC(=O)CN2CCc3c(nc(C(C)C)n3C)C2)s1`, the cytotoxicity at 70.5 h is -8.19%.
Consider `CN(CC(=O)N1CCN(CC(C)(C)O)CC1)c1ccc(Cl)cn1`, for which the cytotoxicity at 70.5 h is -17.3%.
The result for `CCC(C)(CC)NC(=O)COc1nn(C)c2nc(C)cc(C)c12` reads 14.2%; that for `Cc1n[nH]c(C)c1NC(=O)CN1CCc2c(nc(C(C)C)n2C)C1`, -16.4%; that for `COCCOCC(C)NC(=O)COc1nn(C)c2nc(C)cc(C)c12` (configuration not stated), -11%.
The figure for `CC(C)C(=O)N1CCCC1C(=O)Nc1ccc(F)c(F)c1` (configuration not stated) is -14.3%.
The result for `COc1ccc(C(=O)NS(=O)(=O)c2cncc(Br)c2)cc1` reads -16.9%; that for `CNC(=O)Cc1coc(-c2ccc(F)cc2)n1`, -16.9%.
As to `COc1cc(C(=O)NS(=O)(=O)c2cncc(Br)c2)cc(OC)c1C`, the cytotoxicity at 70.5 h was -8.02%.
The figure for `Cc1ccc(F)c(S(=O)(=O)Nc2cn(C)cc(Br)c2=O)c1` is -1.44%.
The figure for `Cn1cc(Br)c(=O)c(NS(=O)(=O)c2ccc3c(c2)CCC3)c1` is 2.07%; for `CN(CCc1cccs1)C(=O)Nc1cnn(CC2CCCO2)c1` (configuration not stated) it is -16%; for `CCN(CC)C(=O)CNC(=O)N1CCC(c2ccc(OC)cc2)C1` (configuration not stated) it is 12.9%.
The figure for `C1CCC(NC2CCCN(Cc3noc(C4CC4)n3)C2)C1` (configuration not stated) is -15.1%.
`COc1cccc(C2(CNC(C)c3nnc(C)o3)CCCC2)c1` (configuration not stated): the cytotoxicity at 70.5 h is -13.9%.
Turning to `O=C(c1ccn(-c2cccc(F)c2)n1)N1CCN(CCO)CC1`, the cytotoxicity at 70.5 h is -5.78%.
The figure for `CCc1noc(CNc2c(F)cccc2-n2cccn2)n1` is -8.2%; for `CC(C)CNC(=O)Nc1cccc(CN2CCOC2=O)c1` it is -6.71%; for `Cc1cccc(NC(=O)C2CCCN2C(=O)c2ccco2)c1C` (configuration not stated) it is 11.4%.

The record behind these values is ChEMBL document CHEMBL3507680, “University of Dundee, Gates Library screen for HepG2 cell viability”.
